# From patent publication US12180187B2, “1-phenyl-5-azinylpyrazolyl-3-oxyalkyl acids and their use for controlling unwanted plant growth” (BAYER AKTIENGESELLSCHAFT, priority 2019, dated 2024)
# Key:
# DIGSA [1] = assay: Pre-emergence action at 320 g/ha against DIGSA; format: in vivo, Digitaria sanguinalis; details: visual scoring after about 3 weeks vs untreated controls
# Procedure, shortened: (§1)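 Sow seeds, cover with soil, spray soil surface (WP/EC, 0.5% additive, 600 l/ha water), hold in greenhouse ~3 wk, then rate % activity visually against untreated controls.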
# ALOMY [2] = assay: Pre-emergence action against ALOMY, 1280 g/ha; format: in vivo, Alopecurus myosuroides; details: visual scoring after about 3 weeks vs untreated controls, 100% = plants have died, 0% = like control plants
# Procedure, shortened: (§2)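 Visual percent-effect ratings (0% = like control, 100% = plants dead) were taken about 3 weeks after pre-emergence soil-surface application of WP/EC aqueous formulations with 0.5% additive, 600 L water/ha. Seeds were sown in sandy loam and grown in the greenhouse.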
# MATIN [3] = assay: Pre-emergence action at 320 g/ha against MATIN; format: in vivo, Tripleurospermum inodorum (Matricaria inodora); details: visual scoring after about 3 weeks vs untreated controls
# Procedure, shortened: as §1
# SETVI [4] = assay: Post-emergence action against SETVI, 1.28 kg/ha; format: in vivo, Setaria viridis; details: dosage 1280 g/ha, visual rating about 3 weeks after treatment vs untreated controls
# Procedure, shortened: (§3)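 Percent activity was scored visually ~3 wk post-spray relative to untreated plants. Treatment was post-emergence at the one-leaf stage using WP/EC in water with 0.5% additive (600 L/ha).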
# DIGSA [5] = assay: Post-emergence action against DIGSA, 1.28 kg/ha; format: in vivo, Digitaria sanguinalis; details: dosage 1280 g/ha, visual rating about 3 weeks after treatment vs untreated controls
# Procedure, shortened: as §3
# POAAN [6] = assay: Pre-emergence action against POAAN, 1280 g/ha; format: in vivo, Poa annua; details: visual scoring after about 3 weeks vs untreated controls, 100% = plants have died, 0% = like control plants
# Procedure, shortened: as §2
# LOLRI = assay: Pre-emergence action against LOLRI, 1280 g/ha; format: in vivo, Lolium rigidum; details: visual scoring after about 3 weeks vs untreated controls, 100% = plants have died, 0% = like control plants
# Procedure, shortened: as §2
# STEME [7] = assay: Post-emergence action against STEME, 1.28 kg/ha; format: in vivo, Stellaria media; details: dosage 1280 g/ha, visual rating about 3 weeks after treatment vs untreated controls (100% = plants died)
# Procedure, shortened: as §3
# ALOMY [8] = assay: Post-emergence action against ALOMY, 320 g/ha; format: in vivo, Alopecurus myosuroides; details: dosage 320 g/ha, visual rating about 3 weeks after treatment vs untreated controls (100% = plants died)
# Procedure, shortened: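 Weeds were sown in sandy loam, grown in a greenhouse and sprayed at the one-leaf stage, 2 to 3 weeks after sowing, with WP or EC formulations as aqueous suspension or emulsion plus 0.5% additive at 600 l/ha water. Activity was rated visually after about 3 weeks against untreated controls (100% = plants dead, 0% = like control).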
# MATIN [9] = assay: Pre-emergence action against MATIN, 1280 g/ha; format: in vivo, Tripleurospermum inodorum (Matricaria inodora); details: scored visually after about 3 weeks vs untreated controls (100% = plants have died)
# Procedure, shortened: as §2
# AMARE [10] = assay: Pre-emergence action at 320 g/ha against AMARE; format: in vivo, Amaranthus retroflexus; details: visual scoring after about 3 weeks vs untreated controls
# Procedure, shortened: as §1
# ECHCG [11] = assay: Pre-emergence action against ECHCG, 1280 g/ha; format: in vivo, Echinochloa crus-galli; details: visual scoring after about 3 weeks vs untreated controls, 100% = plants have died, 0% = like control plants
# Procedure, shortened: as §2
# POLCO [12] = assay: Post-emergence action at 320 g/ha against POLCO; format: in vivo, Fallopia convolvulus (Polygonum convolvulus); details: visual rating about 3 weeks after treatment vs untreated controls
# Source text: (§4) Accordingly, the compounds of the invention have good herbicidal action against a broad spectrum of weed grasses and broad-leaved weeds and are therefore suitable for controlling unwanted vegetation by the post-emergence method. • b) Seeds of monocotyledonous and dicotyledonous weeds and crop plants are placed in sandy loam in plastic or organic planting pots, covered with soil and cultivated in a greenhouse under controlled growth conditions. 2 to 3 weeks after sowing, the test plants are treated at the one-leaf stage. The compounds of the invention, formulated in the form of wettable powders (WP) or as emulsion concentrates (EC), are then sprayed onto the green parts of the plants as aqueous suspension or emulsion with addition of 0.5% additive at a water application rate of 600 l/ha (converted). After the test plants have been kept in the greenhouse under optimum growth conditions for about 3 weeks, the activity of the preparations is rated visually in comparison to untreated controls. For example, 100% activity=the plants have died, 0% activity=like control plants. Tables 39 to 49 below show the effects of selected compounds of the general formula (I) according to Tables 1 and 2 on various harmful plants and at an application rate corresponding to 320 g/ha, which were obtained by the experimental procedure mentioned above.
# DIGSA [13] = assay: Post-emergence action at 320 g/ha against DIGSA; format: in vivo, Digitaria sanguinalis; details: dosage 320 g/ha, visual rating about 3 weeks after treatment vs untreated controls (100% = plants died)
# Source text: as §4
# SETVI [14] = assay: Post-emergence action at 320 g/ha against SETVI; format: in vivo, Setaria viridis; details: visual rating about 3 weeks after treatment vs untreated controls
# Source text: as §4
# STEME [15] = assay: Pre-emergence action against STEME, 1280 g/ha; format: in vivo, Stellaria media; details: scored visually after about 3 weeks vs untreated controls (100% = plants have died)
# Procedure, shortened: as §2
# ABUTH [16] = assay: Post-emergence action at 320 g/ha against ABUTH; format: in vivo, Abutilon theophrasti; details: visual rating about 3 weeks after treatment vs untreated controls
# Source text: as §4
# AVEFA [17] = assay: Pre-emergence action at 320 g/ha against AVEFA; format: in vivo; details: visual scoring after about 3 weeks vs untreated controls
# Procedure, shortened: as §1
# MATIN [18] = assay: Post-emergence action against MATIN, 1.28 kg/ha; format: in vivo, Tripleurospermum inodorum (Matricaria inodora); details: dosage 1280 g/ha, visual rating about 3 weeks after treatment vs untreated controls (100% = plants died)
# Procedure, shortened: as §3
# POLCO [19] = assay: Pre-emergence action at 320 g/ha against POLCO; format: in vivo, Fallopia convolvulus (Polygonum convolvulus); details: visual scoring after about 3 weeks vs untreated controls
# Procedure, shortened: as §1
# AVEFA [20] = assay: Post-emergence action at 320 g/ha against AVEFA; format: in vivo; details: visual rating about 3 weeks after treatment vs untreated controls
# Source text: as §4
# AMARE [21] = assay: Pre-emergence action against AMARE, 1280 g/ha; format: in vivo, Amaranthus retroflexus; details: scored visually after about 3 weeks vs untreated controls (100% = plants have died)
# Procedure, shortened: as §2
# VIOTR = assay: Pre-emergence action at 320 g/ha against VIOTR; format: in vivo, Viola tricolor; details: dosage 320 g/ha
# Procedure, shortened: as §1
# DIGSA [22] = assay: Pre-emergence action against DIGSA, 1280 g/ha; format: in vivo, Digitaria sanguinalis; details: visual scoring after about 3 weeks vs untreated controls, 100% = plants have died, 0% = like control plants
# Procedure, shortened: as §2
# ECHCG [23] = assay: Post-emergence action against ECHCG, 1.28 kg/ha; format: in vivo, Echinochloa crus-galli; details: dosage 1280 g/ha, visual rating about 3 weeks after treatment vs untreated controls
# Procedure, shortened: as §3
# VERPE [24] = assay: Post-emergence action against VERPE, 1.28 kg/ha; format: in vivo, Veronica persica; details: dosage 1280 g/ha, visual rating about 3 weeks after treatment vs untreated controls (100% = plants died)
# Procedure, shortened: as §3
# AMARE [25] = assay: Post-emergence action against AMARE, 1.28 kg/ha; format: in vivo, Amaranthus retroflexus; details: dosage 1280 g/ha, visual rating about 3 weeks after treatment vs untreated controls (100% = plants died)
# Procedure, shortened: as §3
# SETVI [26] = assay: Pre-emergence action against SETVI, 1280 g/ha; format: in vivo, Setaria viridis; details: visual scoring after about 3 weeks vs untreated controls, 100% = plants have died, 0% = like control plants
# Procedure, shortened: as §2
# VERPE [27] = assay: Pre-emergence action against VERPE, 1280 g/ha; format: in vivo, Veronica persica; details: scored visually after about 3 weeks vs untreated controls (100% = plants have died)
# Procedure, shortened: as §2
# VERPE [28] = assay: Pre-emergence action at 320 g/ha against VERPE; format: in vivo, Veronica persica; details: visual scoring after about 3 weeks vs untreated controls
# Procedure, shortened: as §1
# ABUTH [29] = assay: Pre-emergence action against ABUTH, 1280 g/ha; format: in vivo, Abutilon theophrasti; details: scored visually after about 3 weeks vs untreated controls (100% = plants have died)
# Procedure, shortened: as §2
# POAAN [30] = assay: Post-emergence action against POAAN, 1.28 kg/ha; format: in vivo, Poa annua; details: dosage 1280 g/ha, visual rating about 3 weeks after treatment vs untreated controls
# Procedure, shortened: as §3
smiles,measurement,setting,value
CCOC(=O)COc1nn(-c2ccccc2F)c(-c2cncnc2)c1Br [VI-001],Pre-emergence action against DIGSA in %,DIGSA [1],100%
same,Pre-emergence action against ALOMY,ALOMY [2],90%
same,Pre-emergence action against MATIN in %,MATIN [3],90%
same,Post-emergence action against SETVI,SETVI [4],100%
same,Post-emergence action against DIGSA,DIGSA [5],100%
same,Pre-emergence action against POAAN,POAAN [6],100%
same,Pre-emergence action against LOLRI,LOLRI,100%
same,Post-emergence action against STEME,STEME [7],100%
same,Post-emergence action against ALOMY,ALOMY [8],90%
same,Pre-emergence action against MATIN,MATIN [9],100%
same,Pre-emergence action against AMARE in %,AMARE [10],100%
same,Pre-emergence action against ECHCG,ECHCG [11],100%
same,Post-emergence action against POLCO in %,POLCO [12],90%
same,Post-emergence action at 320 g/ha against DIGSA in %,DIGSA [13],90%
same,Post-emergence action against SETVI in %,SETVI [14],80%
same,Pre-emergence action against STEME,STEME [15],100%
same,Post-emergence action against ABUTH in %,ABUTH [16],80%
same,Pre-emergence action against AVEFA in %,AVEFA [17],90%
same,Post-emergence action against MATIN,MATIN [18],90%
same,Pre-emergence action against POLCO in %,POLCO [19],100%
same,Post-emergence action against AVEFA in %,AVEFA [20],80%
same,Pre-emergence action against AMARE,AMARE [21],100%
same,Pre-emergence action against VIOTR in %,VIOTR,100%
same,Pre-emergence action against DIGSA,DIGSA [22],90%
same,Post-emergence action against ECHCG,ECHCG [23],100%
same,Post-emergence action against VERPE,VERPE [24],100%
same,Post-emergence action against AMARE,AMARE [25],90%
same,Pre-emergence action against SETVI,SETVI [26],100%
same,Pre-emergence action against VERPE,VERPE [27],100%
same,Pre-emergence action against VERPE in %,VERPE [28],100%
same,Pre-emergence action against ABUTH,ABUTH [29],90%
same,Post-emergence action against POAAN,POAAN [30],100%
